Assay results: patent US20180177749A1, “USE OF CYP EXPRESSION TO DIRECT THERAPEUTIC INTERVENTION IN CANCER” (REGENTS OF THE UNIVERSITY OF MINNESOTA, priority 2016, published 2018)
Like-named read-outs stand apart in the source and are kept apart here.

What was measured:
MCF-7 cells [1] = experiment: Cellular ATP by luminescent assay; format: cell-based, human
Procedure: Cells were seeded in 96-well tissue culture plate in 100 μL medium per well. After treatment with either vehicle or testing compound for an appropriate length of time, 50 μL mammalian cell lysis solution was added to each well and the plate was shaken for 5 minutes on an orbital shaker. To each well, 50 μL luminescent substrate and luciferase solution were then added. After incubation in the dark for 10 minutes, the luminescence measured. Cellular ATP levels were then calculated against a standard curve generated with ATP standards of known concentration.

MDA-MB-435/LCC6 = experiment: Measurement of OCR and ECAR, MDA-MB-435/LCC6; format: cell-based; details: 20 and 40 μM
Procedure: (§1) Cells were maintained in growth medium consisting of 10% FBS at 37° C. with 5% CO2 and seeded at 100,000 cells per well in XF24-well cell culture microplates (Seahorse Bioscience, North Billirica, Mass.). Concentrated stocks of HBB were prepared in DMSO. HBB was diluted to 10× working concentration in XF assay medium (a non-buffered medium including 2 mM L-glutamine but no sodium bicarbonate (buffering agent), glucose, or sodium pyruvate). Assays were performed in the XF Extracellular Flux Analyzer (Seahorse Bioscience that measures uptake and excretion of metabolic end products in real time). Oxygen consumption rate (OCR) and extracellular acidification rate (ECAR) were measured using an XF Assay Kit. OCR is reported in pmoles/minute and ECAR in mpH/minute. Before analysis, the cells were switched from culture medium to XF assay medium. After baseline measurements, 75 μl of HBB prepared in assay medium was injected into each well to reach final working concentrations. After addition of HBB, OCR and ECAR were measured at 18-minute intervals. There were 5 replicates was performed for each data point for MCF-7, MDA-MB-231, T47D and MDA-MB-435 cell lines. There were 6 replicates for the studies of the 3-18 and 4-14 cell lines.

MCF-7 cells [2] = experiment: JC-1 mitochondrial membrane potential staining, MCF-7; format: cell-based, human; details: HBB 20 μM 4 hours, (±)-14,15-EET 1 μM
Procedure: Cells were grown in chamber slides at 37° C. with 5% CO2 and treated with DMSO or HBB for 4 hours before JC-1 dye was added for the MCF-7 or MDA-MB-231 cell line. […] Images of red fluorescence (590 nm) and green fluorescence (530 nm) were acquired using an Olympus 1X70 microscope fitted with an Olympus DP70 digital camera (Olympus, Tokyo, Japan).

MCF-7 cells [3] = experiment: Measurement of OCR and ECAR (extracellular flux), MCF-7; format: cell-based, human
Procedure: as §1, with “There were 5 replicates was performed for each data point for MCF-7, MDA-MB-231, T47D and MDA-MB-435 cell lines.” left out

[4] = MTD for daily dosing by two-fold dose escalation in tumor-bearing mice; format: in vivo
MCF-7 = experiment: MTT cell proliferation assay, MCF-7; format: cell-based; details: Homo sapiens, MCF7
Procedure: Cells were grown at 37° C. in a 5% CO2 incubator. […] MTT was then added (5 mg/ml), and after 2 h of incubation, the plates were centrifuged. The supernatant was removed; DMSO was added, and the absorbance was read at 540 nm with a BioTek 96-well plate reader.

CYP3A4 vs CYP2C8 = target: T1, CYP3A4 vs CYP2C8 (Homo sapiens, UniProt P08684); experiment: Recombinant microsomal CYP-mediated EET biosynthesis (CYP3A4 Supersomes); format: biochemical; details: human, CYP3A4 or CYP2C8 Supersomes (recombinant microsomes), pH 7.4, probe arachidonic acid (AA), 5 μM; CYP3A4 vs CYP2C8; read-out: selectivity for CYP3A4 epoxygenase activity
T1 construct: host or cells: insect cells (microsomes)
T1 sequence (P08684 whole entry): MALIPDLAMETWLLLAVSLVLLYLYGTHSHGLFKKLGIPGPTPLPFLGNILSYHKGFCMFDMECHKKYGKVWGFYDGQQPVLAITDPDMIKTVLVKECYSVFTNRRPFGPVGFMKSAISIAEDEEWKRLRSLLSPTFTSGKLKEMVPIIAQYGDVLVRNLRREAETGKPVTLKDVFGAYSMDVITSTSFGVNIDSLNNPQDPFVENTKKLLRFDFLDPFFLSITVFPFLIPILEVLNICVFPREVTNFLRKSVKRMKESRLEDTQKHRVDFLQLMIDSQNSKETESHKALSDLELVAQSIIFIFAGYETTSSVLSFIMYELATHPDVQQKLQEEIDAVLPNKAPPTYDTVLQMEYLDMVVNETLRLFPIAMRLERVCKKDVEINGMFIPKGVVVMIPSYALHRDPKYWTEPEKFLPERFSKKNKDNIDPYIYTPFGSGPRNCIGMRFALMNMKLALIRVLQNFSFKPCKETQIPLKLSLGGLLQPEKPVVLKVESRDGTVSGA
Source text: (§2) Samples were submitted to liquid chromatography-electrospray ionization/multiple reaction monitoring/mass spectrometry (LC-ESI/MRM/MS) analysis in a Thermo Electron Quantum Discovery Max triple quadrupole mass spectrometer (Thermo Finnigan, San Jose, Calif.) coupled with an Agilent 1100 HPLC (Santa Clara, Calif.), using argon as the collision gas. […] A standard curve was obtained by linear regression of the peak area ratio of authentic EET regioisomers against internal standards. The amount of EETs in samples was calculated according to the standard curve. The (±)-5,6-EET regioisomer was not measured because it undergoes rapid internal degradation.
(§3) CYP3A4 or 2C8 Supersomes™ (BD Biosciences) were incubated at 37° C. for 30 min in the presence of AA (5 μM) in […] Tris-HCl, pH 7.4, containing 1 mm EDTA and 1 mm NADPH. Reactions were terminated by adding methylene chloride (0.5 ml). Samples were centrifuged at 3,000 rpm for 10 min and 150 μl of the organic phases were evaporated under nitrogen. Samples were reconstituted in 20 μl of MeOH containing [^13C20]EET internal standards and submitted to a Thermo Electron Quantum Discovery Max triple quadrupole mass spectrometer (Thermo Finnigan, San Jose, Calif.) coupled with an Agilent 1100 HPLC (Santa Clara, Calif.) for analysis. […] Concentrations of EETs generated by CYP Supersomes™ were calculated by linear regression against standard curve generated with EET standards.

CYP3A4 = target: T2, CYP3A4 (Homo sapiens, UniProt P08684); experiment: as above; format: biochemical; details: for IC50: microsomal CYP3A4
T2 construct: host or cells: insect cells (microsomes)
T2 sequence (P08684 whole entry): as above
Source text: as §2, §3

MCF-7 cells [5] = experiment: Western blot of signaling proteins, MCF-7; format: cell-based, human
Procedure: RIPA extracts of cells were prepared as described previously, in the presence of protease inhibitors and phosphatase inhibitors. Protein concentrations were determined by the micro-bicinchoninic acid (BCA) method, and 30 μg of protein was used for each lane of the SDS-polyacrylamide gel Western blot. Relative protein expression was estimated using GAPDH or β-actin as an internal standard.

[6] = t-AUCB 2.5, 5 μM, metformin 2.5, 5 mM, HBB 20, 40 μM, rotenone 1 μM

For `CCCCCCNC(=N)NC(=N)NCc1ccccc1` [HBB, N1-hexyl-N5-benzyl-biguanide], the ATP depletion (MCF-7 cells [1]; 6 hours) was 30%, the “total cellular ATP levels” value (MCF-7 cells [1]; 6 hours of treatment, metformin 5 mM) was “reduced” and the “reduction of OCR and ECAR” value (MDA-MB-435/LCC6) was “significant vs. vehicle”. For the same molecule, the “mitochondrial membrane potential (ΔΨm), JC-1” value (MCF-7 cells [2]) was “caused mitochondrial depolarization”, the “potency as inhibitor of OCR relative to metformin” value (MCF-7 cells [3]) was “more than 250 fold” and the “extracellular acidification rate (ECAR)” value (MCF-7 cells [3]; [6]) was “significant inhibition of ECAR without recovery”. The “oxygen consumption rate (OCR)” value (MCF-7 cells [3]; [6]) was “dose-dependent reduction of OCR”, the lethality ([4]; 8 mg/kg/day ip, cohorts of 5 tumor-bearing mice) was “animal deaths within 3 days” and the MTD ([4]; athymic nude (Foxn1nu/Foxn1nu), mouse, in vivo, ip) was 4 mg/kg/day. For the same molecule, the IC50 (MCF-7; MCF-7, ER+[PR+]HER2−, read-out: IC50) was 20.1 µM, the IC50 (MCF-7; read-out: IC50 MCF-7) was 20 µM and the selectivity ratio at 30 min (CYP3A4 vs CYP2C8) was 5 to 7. It also gave a Ki (CYP3A4; CYP3A4 epoxygenase activity) of 9 µM, an IC50 (CYP3A4; read-out: IC50, CYP3A4 synthesis of (±)-8,9-EET) of 9.5 µM and an IC50 (CYP3A4; read-out: IC50, CYP3A4 synthesis of (±)-11,12-EET) of 8 µM. The “dosing for signaling effects relative to metformin (lower)” value (MCF-7 cells [5]) was 250 fold, the “mTOR, S6 kinase and ERK” value (MCF-7 cells [5]; 20 μM, by 24 hours, presence or absence of serum) was “Significant inhibition” and the “onset of AMPK activation (phosphorylation)” value (MCF-7 cells [5]; HBB 20 μM, metformin 5 mM) was “within 30 minutes to 1 hour”.
